Measured values published in patent publication US9795596B2, “Pharmaceutical diagnostic” (Novartis AG, priority 2012, dated 2017).

Tests used:
Format in all cases: biochemical, bovine
PI3Kα wildtype (wt) = target: T1, PI3Kα wildtype (wt) (Bos taurus, UniProt P32871); test: Enzymatic HTRF assay, PI3Kα wild-type
T1 construct: His; made in house; host or cells: Sf9 insect cells (baculovirus co-infection)
Text: The Phosphoinositide 3-kinase (PI3-Kinase or PI3K) Homogenous Time-Resolved (HTRF®) assay kit is purchased from Upstate (now Millipore Corporation, Billerica, Mass., USA). PIP2 and PiP3 is purchased from Avanti Polar Lipids (Alabaster, Ala., USA), microplates from Greiner (Frickenhausen, Germany; Catalog No. 781207). All other reagents are purchased from Sigma (St Louis, Mo., USA). […]
PI3K inhibitor (S)-Pyrrolidine-1,2-dicarboxylic acid 2-amide 1-({4-methyl-5-[2-(2,2,2-trifluoro-1,1-dimethyl-ethyl)-pyridin-4-yl]-thiazol-2-yl}-amide) (hereinafter “Compound I”) is diluted successively in Dimethyl sulfoxide (DMSO) and in buffer (final concentration: 2.5% DMSO). […] The plate is read using Tecan's GeniosPro® multilabel reader (from Tecan Group Ltd., Männedorf, Switzerland) in time-resolved fluorescence mode (Excitation filter: 340 nm; Emission filter 1: 620 nm; Emission filter 2: 665 nm; Mirror: dichroic2; Lag time: 150 μs; Integration time: 500 μs; 10 flashes).
(§1) The HTRF signal is determined according to the formula: HTRF signal=10000×(emission at 665 nm/emission at 620 nm). […]

PI3Kα Q859A mutant [1] = target: T2, PI3Kα Q859A mutant (Bos taurus, UniProt P32871, Q859A); test: Enzymatic HTRF assay, PI3Kα Q859A mutant
T2 construct: His; made in house; host or cells: Sf9 insect cells (baculovirus co-infection)
Description: (§2) Mutagenesis to generate PI3Kα (p110α) mutant Q859A is performed with the QuikChange II Site-Directed Mutagenesis kit (Stratagene (cat. no 200523) and the oligonucleotides
(§3) The Phosphoinositide 3-kinase (PI3-Kinase or PI3K) Homogenous Time-Resolved (HTRF®) assay kit is purchased from Upstate (now Millipore Corporation, Billerica, Mass., USA). PIP2 and PiP3 is purchased from Avanti Polar Lipids (Alabaster, Ala., USA), microplates from Greiner (Frickenhausen, Germany; Catalog No. 781207). All other reagents are purchased from Sigma (St Louis, Mo., USA).
(§4) The enzymatic Homogenous Time-Resolved Fluorescense (HTRF®) assay (from Upstate (now Millipore Corporation, Billerica, Mass., USA) is performed essentially as described by Sugita et al. (2008), Biochem. Biophys. Res. Commun 377(3):941-5. PI3Kα (0.25-1.5 ng) is incubated for 60 minutes at room temperature in 20 μl buffer containing 10 mM MgCl2, 30 μM ATP, 20 μM 1,2-dioctanoyl-sn-glycero-3-phospho-(1′-myo-inositol-4′,5′-bisphosphate) (ammonium salt) (PIP2), 150 mM NaCl, 5 mM (dl-Dithiothreitol) DTT, and 25 mM Tris/HCl (pH 7.5) in 384-well white plates. The kinase reaction is initiated by adding ATP (30 μM) for inhibition studies and by adding PI3Kα for ATP kinetics (0-200 μM ATP).
(§5) PI3K inhibitor (S)-Pyrrolidine-1,2-dicarboxylic acid 2-amide 1-({4-methyl-5-[2-(2,2,2-trifluoro-1,1-dimethyl-ethyl)-pyridin-4-yl]-thiazol-2-yl}-amide) (hereinafter “Compound I”) is diluted successively in Dimethyl sulfoxide (DMSO) and in buffer (final concentration: 2.5% DMSO). The kinase reaction is stopped by addition of the HTRF reagents according to manufacturer's instructions. […] The plate is read using Tecan's GeniosPro® multilabel reader (from Tecan Group Ltd., Männedorf, Switzerland) in time-resolved fluorescence mode (Excitation filter: 340 nm; Emission filter 1: 620 nm; Emission filter 2: 665 nm; Mirror: dichroic2; Lag time: 150 μs; Integration time: 500 μs; 10 flashes).
as §1

PI3Kα Q859A mutant [2] = test: Enzymatic HTRF assay, PI3Kα Q859A mutant; settings: IC50 Q859A / IC50 wildtype
Description: as §2, §3, §4, §5, §1

T1 sequence (P32871 whole entry): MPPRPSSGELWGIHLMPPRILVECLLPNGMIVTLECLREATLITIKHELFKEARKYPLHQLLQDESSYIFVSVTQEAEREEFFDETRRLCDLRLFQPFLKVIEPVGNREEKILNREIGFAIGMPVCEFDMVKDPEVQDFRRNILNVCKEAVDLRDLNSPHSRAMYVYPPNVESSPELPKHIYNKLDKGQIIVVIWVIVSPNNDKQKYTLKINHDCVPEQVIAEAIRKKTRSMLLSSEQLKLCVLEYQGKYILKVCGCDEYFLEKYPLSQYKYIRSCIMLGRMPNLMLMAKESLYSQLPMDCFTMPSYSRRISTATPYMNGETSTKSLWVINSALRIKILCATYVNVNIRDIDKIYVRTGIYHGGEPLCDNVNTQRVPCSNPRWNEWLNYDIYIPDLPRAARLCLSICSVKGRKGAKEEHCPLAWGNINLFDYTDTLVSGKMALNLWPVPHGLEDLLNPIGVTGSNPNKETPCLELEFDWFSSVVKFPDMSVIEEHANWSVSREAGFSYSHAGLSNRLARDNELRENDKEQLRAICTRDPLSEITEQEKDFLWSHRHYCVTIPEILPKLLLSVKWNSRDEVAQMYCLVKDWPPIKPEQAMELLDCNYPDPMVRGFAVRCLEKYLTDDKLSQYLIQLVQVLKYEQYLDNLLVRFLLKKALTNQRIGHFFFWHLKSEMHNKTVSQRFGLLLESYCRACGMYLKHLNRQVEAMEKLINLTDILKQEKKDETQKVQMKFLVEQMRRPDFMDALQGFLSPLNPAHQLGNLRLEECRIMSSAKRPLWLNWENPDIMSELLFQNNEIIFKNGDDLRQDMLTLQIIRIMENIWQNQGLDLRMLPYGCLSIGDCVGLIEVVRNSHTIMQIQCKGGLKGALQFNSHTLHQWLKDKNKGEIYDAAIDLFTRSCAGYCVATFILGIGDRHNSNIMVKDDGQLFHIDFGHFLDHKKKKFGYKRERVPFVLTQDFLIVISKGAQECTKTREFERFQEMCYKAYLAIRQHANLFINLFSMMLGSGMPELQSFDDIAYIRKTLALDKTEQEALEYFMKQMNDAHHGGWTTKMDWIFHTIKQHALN
T1 sequence (P27986 whole entry partner): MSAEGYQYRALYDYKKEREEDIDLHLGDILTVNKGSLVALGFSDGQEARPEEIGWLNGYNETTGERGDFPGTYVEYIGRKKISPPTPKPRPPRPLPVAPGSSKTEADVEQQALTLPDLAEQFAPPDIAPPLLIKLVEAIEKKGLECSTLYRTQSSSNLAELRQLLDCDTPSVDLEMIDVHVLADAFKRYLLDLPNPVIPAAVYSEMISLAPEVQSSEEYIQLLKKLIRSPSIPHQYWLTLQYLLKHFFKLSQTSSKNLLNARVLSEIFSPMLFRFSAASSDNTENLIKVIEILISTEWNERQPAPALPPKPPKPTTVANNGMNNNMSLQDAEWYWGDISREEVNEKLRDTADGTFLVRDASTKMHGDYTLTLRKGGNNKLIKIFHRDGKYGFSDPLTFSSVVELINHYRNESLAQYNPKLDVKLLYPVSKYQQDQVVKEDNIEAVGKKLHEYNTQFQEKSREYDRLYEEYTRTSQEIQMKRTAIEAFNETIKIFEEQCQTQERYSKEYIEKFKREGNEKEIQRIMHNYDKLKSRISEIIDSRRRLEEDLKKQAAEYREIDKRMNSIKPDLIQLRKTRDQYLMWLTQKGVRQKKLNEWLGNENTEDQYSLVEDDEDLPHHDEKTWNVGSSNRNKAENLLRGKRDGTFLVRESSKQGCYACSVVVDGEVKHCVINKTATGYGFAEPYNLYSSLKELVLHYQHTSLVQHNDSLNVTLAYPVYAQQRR
T2 sequence (P32871 whole entry Q859A): as the sequence (P32871 whole entry) above, with Q859A counted along it
T2 sequence (P27986 whole entry partner): as the sequence (P27986 whole entry partner) above

IC50 (PI3Kα wildtype (wt); PI3Kα wild-type p110α/p85α, 30 μM ATP, 20 μM PIP2, 60 min, mean ± S.E. of 10 experiments) | IC50 (PI3Kα Q859A mutant [1]; PI3Kα Q859A mutant p110α/p85α, 30 μM ATP, 20 μM PIP2, 60 min, mean ± S.E. of 7 experiments) | fold increase in the IC50, Q859A mutant versus wildtype (PI3Kα Q859A mutant [2]) | Km (PI3Kα wildtype (wt); PI3K wild-type, 0-200 μM ATP, mean ± S.E. of 14 experiments, read-out: Michaelis constant (Km), ATP activation kinetics) | Km (PI3Kα Q859A mutant [1]; PI3Kα Q859A mutant, 0-200 μM ATP, mean ± S.E. of 5 experiments, read-out: Michaelis constant (Km), ATP activation kinetics) | Compound
8.4 ± 1 nM | 122 ± 28 nM | 14.5 fold | – | – | Cc1nc(NC(=O)N2CCC[C@H]2C(N)=O)sc1-c1ccnc(C(C)(C)C(F)(F)F)c1 [Compound I, (S)-Pyrrolidine-1,2-dicarboxylic acid 2-amide 1-({4-methyl-5-[2-(2,2,2-trifluoro-1,1-dimethyl-ethyl)-pyridin-4-yl]-thiazol-2-yl}-amide)]
– | – | – | 60 ± 6 µM | 72 ± 8 µM | Nc1ncnc2c1ncn2[C@@H]1O[C@H](COP(=O)(O)OP(=O)(O)OP(=O)(O)O)[C@@H](O)[C@H]1O [ATP, reference compound]
